# Patent US10851075B2, “Stat3 pathway inhibitors and cancer stem cell inhibitors” (Sumitomo Dainippon Pharma Oncology, Inc., priority 2007, dated 2020)
# Read-outs that look alike come from different tables or passages of the source.
# Legend:
# [1] = system: H1299 cells; assay: MTT cell viability, H1299; format: cell-based; conditions: Homo sapiens, NCI-H1299, MTT at 24 hours
# Description: (§1) Cell Culture: HeLa, DU145, H1299, DLD1, SW480, A549, MCF7, LN18, HCT116, HepG2, Paca2, Panel, LNcap, FaDu, HT29, and PC3 cells (ATCC, Manassas, Va.) were maintained in Dulbecco's Modified Eagle Medium (DMEM) (Invitrogen, Carlsbad, Calif.) supplemented with 10% fetal bovine serum (MS) (Gemini Bio-Products, West Sacramento, Calif.) and 5% penicillin/streptomycin/amphotercin B (Invitrogen).
# (§2) Cell Viability Determination: For 3-(4,5 dimethylthiazol-2-yl)-2,5-diphenyltetrazolium (MTT) (Sigma-Aldrich, St. Louis, Mo.) analysis, cells were plated in 96 well plates at 10,000 cells per well. 24 hours after plating, compound was added to cells at indicated doses. 22 hours following compound addition, MTT was added to each well (0.5 mg/ml, final concentration) and plates were incubated for an additional 2 hours at 37° C., Medium was then aspirated and the formazan product was solubilized in 100 μl of isopropyl alcohol. The absorbance of each well was measured at 570 nm using a microplate reader.
# (§3) Identification of compounds that are apoptotic to a broad spectrum of cancer cells in vitro. Cells plated in 96 well plates and treated with indicated compounds were subjected to MTT analysis at 24 hours following compound treatment to determine cell viability.
# [2] = system: HeLa cells; assay: MTT cell viability, HeLa; format: cell-based; conditions: Homo sapiens, MTT at 24 hours
# Description: as §1, §2, §3
# [3] = system: DU145 cells; assay: MTT cell viability, DU145; format: cell-based; conditions: Homo sapiens, DU-145, MTT at 24 hours
# Description: as §1, §2, §3
# [4] = target: T1, Stat3 DNA-binding activity (Homo sapiens, UniProt P40763); assay: Stat3 DNA binding assay (EMSA), HeLa nuclear extract; format: biochemical; conditions: for inhibition % 1 × MTT IC50: compound at 1 × MTT IC50, untreated Stat3 retarded band set as 100; for inhibition % 3 × MTT IC50: compound at 3 × MTT IC50, untreated Stat3 retarded band set as 100
# T1 construct: endogenous in cells; host or cells: HeLa cells (nuclear extract)
# T1 sequence (P40763 whole entry): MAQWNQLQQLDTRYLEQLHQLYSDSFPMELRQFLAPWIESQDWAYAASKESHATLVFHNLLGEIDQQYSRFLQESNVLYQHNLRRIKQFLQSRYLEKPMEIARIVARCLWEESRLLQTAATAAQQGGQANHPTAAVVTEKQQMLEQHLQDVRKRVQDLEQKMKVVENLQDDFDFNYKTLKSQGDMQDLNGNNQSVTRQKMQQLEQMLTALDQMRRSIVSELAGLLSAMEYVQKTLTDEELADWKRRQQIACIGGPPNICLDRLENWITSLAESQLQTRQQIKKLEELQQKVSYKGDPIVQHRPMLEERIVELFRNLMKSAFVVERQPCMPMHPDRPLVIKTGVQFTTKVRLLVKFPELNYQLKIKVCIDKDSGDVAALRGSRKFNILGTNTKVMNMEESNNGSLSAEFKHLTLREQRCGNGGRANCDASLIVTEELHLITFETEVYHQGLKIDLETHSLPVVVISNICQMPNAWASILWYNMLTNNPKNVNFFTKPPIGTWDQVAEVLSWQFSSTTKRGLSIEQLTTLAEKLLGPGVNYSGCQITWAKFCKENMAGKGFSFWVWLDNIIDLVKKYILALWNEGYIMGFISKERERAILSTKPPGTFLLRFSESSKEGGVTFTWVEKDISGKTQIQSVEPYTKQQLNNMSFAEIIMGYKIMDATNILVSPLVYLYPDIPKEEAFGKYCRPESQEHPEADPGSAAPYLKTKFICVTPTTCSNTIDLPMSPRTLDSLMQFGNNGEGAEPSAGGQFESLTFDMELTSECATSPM
# Description: STAT3 DNA Binding Assay: Electrophoretic mobility shift assay (EMSA) was performed as described by the manufacturer (Li-Cor Biosciences, Lincoln, Nebr.). Briefly, nuclear extracts were made from HeLa cells using the NucBuster Protein Extraction Kit as described by the manufacturer (EMD Biosciences, San Diego, Calif.). 5 μg of nuclear extract was pre-incubated with the indicated dose of indicated compound for 30 minutes prior to a 15-minute incubation with the IR700-labeled consensus Stat3 oligonucleotide. Samples were then electrophoresed on a polyacrylamide gel and directly scanned using the Odyssey infrared imaging system (Li-Cor Biosciences). For the enzyme-linked immunosorbent assay (ELISA), 5 μg of nuclear extract was preincubated with indicated concentration of indicated compound for 30 minutes prior to the addition of biotinylated oligo (5′-Biotin-[…]-3′). Stat3-DNA complexes were then captured on streptavidin coated 96 well plates (Pierce, Rockford, Ill.). Bound complexes were then incubated with Stat3 polyclonal antibody (Santa Cruz Biotechnology, Santa Cruz, Calif.) followed by anti-rabbit HRP conjugated secondary antibody (GE Healthcare, Pittsburgh, Pa.). Bound antibody was then visualized by addition of TMB substrate (Pierce) and absorbance measured at 450 nm.
# Inhibition of Stat3 DNA-binding activity. Nuclear extracts from HeLa cells, which contain constitutively activated Stat3 as detected by phoshporylation at the tyrosine 705 residue, were used to perform Stat3 EMSAs to monitor Stat3 DNA binding activity. Nuclear extracts were incubated with indicated compound prior to incubation with IR700-labeled Stat3 consensus oligonucleotide. Binding of Stat3 to the oligonucleotide was monitored by gel electrophoresis and detection using a LiCor Odyssey infrared scanner.
# To calculate the inhibition %, the density of the untreated Stat3 retarded band (control) was set as 100 and the inhibition % was the difference between the control and the relative DNA binding activity of the drug-treated samples.
# [5] = system: SW480 Hoechst SP cells; assay: Anti-CSC MTT assay, SW480 Hoechst side population (SP) cells; format: cell-based; conditions: Homo sapiens, 48 h
# Description: as §2
# (§4) Hoechst Side Population: To identify and isolate side population (SP) and non-SP fractions, SW480 cells were removed from the culture dish with trypsin and EDTA, pelleted by centrifugation, washed with phosphate-buffered saline (PBS), and resuspended at 37° C. in Dulbecco's modified Eagle's medium (DMEM) containing 2% FBS and 1 rnM HEPES. The cells were then labeled with Hoechst 33342 (Invitrogen) at a concentration of 5 μg/mL. The labeled cells were incubated for 120 minutes at 37° C., either alone or with 50 μM verapamil (Sigma-Aldrich, St. Louis). After staining, the cells were suspended in Hanks' balanced saline solution (MISS; Invitrogen) containing 2% FBS and 1 mM HEPES, passed a through 40 μm mesh filter, and maintained at 4° C. until flow cytometry analysis. The Hoechst dye was excited at 350 nm, and its fluorescence was measured at two wavelengths using a 450 DF10 (450/20 nm band-pass filter) and a 675LP (675 nm long-pass edge filter) optical filter. The gating on forward and side scatter was not stringent, and only debris was excluded.
# (§5) In order to test compounds for anti-CSC activity, freshly isolated CSCs (SW480 Hoechst SP cells or CD44^high FaDu cells) were exposed to a dose range (30-0.117 μM) of compound for 48 h before examining cell viability by MTT assay. IC50s were estimated by plotting the percentage of surviving cells. As shown in Table 7 and Table 8, the compounds of present invention can target cancer stem cells.
# [6] = system: SW480 NSP cells; assay: Anti-CSC MTT assay, SW480 non-SP (NSP) cells; format: cell-based; conditions: Homo sapiens, 48 h
# Description: as §2, §4, §5
# [7] = system: PC3 cells; assay: MTT cell viability, PC3; format: cell-based; conditions: Homo sapiens, PC-3; PC3, Prostate; MTT at 24 hours; Table 3
# Description: as §1, §2, §3
# [8] = system: Paca2 cells; assay: MTT cell viability, Paca2; format: cell-based; conditions: PaCa-2; Paca2, Pancreas; MTT at 24 hours; Table 3
# Description: as §1, §2, §3
# [9] = system: Panc1 cells; assay: MTT cell viability, Panc1; format: cell-based; conditions: Homo sapiens, PANC-1; Panc1, Pancreas; MTT at 24 hours; Table 3
# Description: as §1, §2, §3
# [10] = system: DLD1 cells; assay: MTT cell viability, DLD1; format: cell-based; conditions: Homo sapiens, DLD-1; DLD1, Colon; MTT at 24 hours; Table 3
# Description: as §1, §2, §3
# [11] = system: Stat3 transcription activity; assay: Stat3-luciferase (Stat3-Luc) reporter assay in HeLa cells, OSM stimulated; format: cell-based; conditions: Homo sapiens, compound 30 minutes before 25 ng/ml oncostatin M, 6 hours, read-out: IC50 in Stat3-Luc assays
# Description: Luciferase Reporter Assay: HeLa Cells were co-transfected with Stat3-luciferase (Stat3-Luc) reporter vector (Panomics, Fremont, Calif.) and Renilla luciferase (Promega, Madison, Wis.) using Lipofectamine 2000 as described by the manufacturer (Invitrogen). Following transfection, cells were maintained in medium containing 0.5% FBS for 24 hours. Cells were then treated with the indicated compound for 30 minutes prior to the addition of 25 ng/ml oncostatin M (OSM) (R&D Systems, Minneapolis, Minn.) to the medium. 6 hours following OSM addition, cells were harvested and levels of firefly and renilla luciferase were measured using the Dual-Glo Luciferase Assay System as described by the manufacturer (Promega).
# Inhibition of Stat3 transcription activity. Compounds were tested for their ability to inhibit Stat3 transcription activation activity in cells using a Stat3-luciferase (Stat3-luc) reporter construct. Cells transfected with Stat3-luc were cultured in reduced serum medium prior to addition of indicated compound for 30 minutes. Cells were then stimulated with 25 ng/ml oncostatin (OSM) for 6 hours followed by detection of Stat3-luc reporter activity.
# [12] = system: SW480 cells; assay: MTT cell viability, SW480; format: cell-based; conditions: Homo sapiens; SW480, Colon; MTT at 24 hours; Table 3
# Description: as §1, §2, §3
# [13] = H1299, Table 4, read-out: IC50 (μM) H1299
# [14] = Hela, Table 4, read-out: IC50 (μM) Hela
# [15] = DU145, Table 4, read-out: IC50 (μM) DU145
"IC50 [1, 13]","IC50 [2, 14]","IC50 [3, 15]",inhibition % 1 × MTT IC50 [4],inhibition % 3 × MTT IC50 [4],SMILES,also measured
3 to 10 µM,11.7 µM,3.7 µM,,,CCc1cc2c(o1)C(=O)c1ccccc1C2=O [Compound 101],
,11.4 µM,,,,Cc1cc2c(o1)C(=O)c1ccccc1C2=O [Compound 102],
8.9 µM,16.7 µM,> 10 µM,98%,26%,O=C1c2ccccc2C(=O)c2oc(Cc3ccccc3)cc21 [Compound 103],
8.4 µM,13 µM,6.5 µM,,,CCc1cc2c(o1)C(=O)c1cc(Cl)ccc1C2=O [Compound 105],
,,4.84 µM,26%,51%,CCc1cc2c(o1)C(=O)c1cc(F)ccc1C2=O [Compound 106],IC50 [5]: 4.44 µM; IC50 [6]: 2 µM
,20.7 µM,30.8 µM,,,Cc1oc2c(c1-c1ccccc1)C(=O)c1ccccc1C2=O [Compound 108],
,,1.76 µM,,,C=Cc1cc2c(o1)C(=O)c1ccccc1C2=O [Compound 201],
0.794 µM,3.36 µM,,20%,26%,CC(O)c1cc2c(o1)C(=O)c1ccccc1C2=O (stereo not drawn) [Compound 301],
,,2.88 µM,,,CC(=O)OC(C)c1cc2c(o1)C(=O)c1ccccc1C2=O (stereo not drawn) [Compound 303],
,1.71 µM,1.1 µM,,,CC(=O)OC(C)c1cc2c(o1)C(=O)c1cc(F)ccc1C2=O (stereo not drawn) [Compound 305],
1.04 µM,2.01 µM,0.554 µM,29%,57%,O=C(c1ccccc1)c1cc2c(s1)C(=O)c1ccccc1C2=O [Compound 402],"IC50 [7]: 8480 nM; IC50 ([1]; H1299, Lung, Table 3, read-out: IC50): 1.04 µM; IC50 ([2]; HeLa, Cervix, Table 3, read-out: IC50): 2.01 µM; IC50 ([3]; DU145, Prostate, Table 3, read-out: IC50): 0.55 µM; IC50 [5]: 0.4 µM; IC50 [8]: 490 nM; IC50 [9]: 7210 nM; IC50 [10]: 2510 nM; IC50 [6]: 0.38 µM; IC50 [11]: ~750 nM; IC50 [12]: 1490 nM"
4 µM,,6.5 µM,,,O=C(c1ccc([N+](=O)[O-])cc1)c1cc2c(s1)C(=O)c1ccccc1C2=O [Compound 403],
